{
  "source": "patent US20190119649A1",
  "about": "“METHODS FOR GENERATING AUGMENTED STEM CELL-DERIVED BETA CELLS AND USES THEREOF” (President and Fellows of Harvard College, priority 2014, published 2019)",
  "key": {"SC-β cells [1]": {"system": "SC-β cells", "conditions": "R428 together with antioxidant N-acetylcysteine; FIG. 1A", "from_the_text": "FIG. 2C is a schematic depicting an overview of an exemplary method for generating augmented SC-β cells in accordance with the present invention.\nIn accordance with aspects of the present invention, the period of time comprises between 7 days and 21 days. […] In accordance with aspects of the present invention, the period of time comprises 3 days, 4 days, 5 days, 6 days, 7 days, 8 days, 9 days, 10 days, 11 days, 12 days, 13 days, 14 days, 15 days, 16 days, 17 days, 18 days, 19 days, 20 days, 21 days, 22 days, 23 days, 24 days, 25 days, 26 days, 27 days, 28 days, 29 days, or 30 days or longer."}, "SC-β cells [2]": {"system": "SC-β cells", "experiment": "Glucose stimulated insulin secretion stimulation index of SC-β cells", "type": "cell-based, human", "conditions": "R428 together with antioxidant N-acetylcysteine; FIG. 1B and 1C", "method": "Stimulation index=[insulin@20 mM glucose]/[insulin@2 mM glucose]. Relative Stim Index=Stim Index/Stim Index of Control."}},
  "data": [
    {"compound": "Nc1nc(Nc2ccc3c(c2)CC[C@@H](N2CCCC2)CC3)nn1-c1cc2c(nn1)-c1ccccc1CCC2", "note": "[Compound R428]", "values": [
      {"measurement": "MAFA gene expression relative to SC-β cells generated without AXL inhibitor and antioxidant", "setting": "SC-β cells [1]", "result": "increased MAFA gene expression"},
      {"measurement": "Stimulation index ([insulin@20 mM glucose]/[insulin@2 mM glucose]) relative to SC-β cells generated without AXL inhibitor", "setting": "SC-β cells [2]", "result": "greater stimulation index"}
    ]}
  ]
}
